Data from patent US20170050957A1, “4-AMINO-6-(HETEROCYCLIC)PICOLINATES AND 6-AMINO-2-(HETEROCYCLIC)PYRIMIDINE-4-CARBOXYLATES AND THEIR USE AS HERBICIDES” (Dow AgroSciences LLC, priority 2013, published 2017).
Where two headings read alike, the source gives them in different places.

Experiments:
[1] = test system: Key Grass and Sedge Weeds as well as Grass Crops; assay: Post-emergent Test II herbicidal activity (Table 16); type: in vivo; conditions: post-emergence, 336 h, 14 d; for pest or weed control at 35 g/ha: 35 g ai/ha; for pest or weed control at 70 g/ha: 70 g ai/ha; for pest or weed control at 140 g/ha: 140 g ai/ha
Outline: (§1)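 Plants grown in greenhouse (~15 h photoperiod, 23-29 °C day, 22-28 °C night) to first or second true leaf stage, then sprayed post-emergence at 187 L/ha with a high rate and 1/2×, 1/4×, 1/8× and 1/16× dilutions. Injury scored visually after 14 d, 0-100% versus untreated plants.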

[2] = test system: Key Broadleaf Weed and Crop Species; assay: Post-emergent Test II herbicidal activity (Table 15); type: in vivo; conditions: post-emergence, 336 h, 14 d; for pest or weed control at 35 g/ha: 35 g ai/ha; for pest or weed control at 70 g/ha: 70 g ai/ha; for pest or weed control at 140 g/ha: 140 g ai/ha
Outline: as §1

[3] = Cyperus esculentus, yellow nutsedge (Cyperus esculentus), read-out: Visual Growth Reduction (%) 14 Days After Application, CYPES
[4] = Echinochloa crus-galli, barnyardgrass (Echinochloa crus-galli), read-out: Visual Growth Reduction (%) 14 Days After Application, ECHCG
[5] = Oryza sativa, rice (Oryza sativa), read-out: Visual Growth Reduction (%) 14 Days After Application, ORYSA
[6] = Triticum aestivum, wheat, spring (Triticum aestivum), read-out: Visual Growth Reduction (%) 14 Days After Application, TRZAS
[7] = Zea mays, maize, corn (Zea mays), read-out: Visual Growth Reduction (%) 14 Days After Application, ZEAMX
[8] = Abutilon theophrasti, velvetleaf (Abutilon theophrasti), read-out: Visual Growth Reduction (%) 14 Days After Application, ABUTH
[9] = Amaranthus retroflexus, redroot pigweed (Amaranthus retroflexus), read-out: Visual Growth Reduction (%) 14 Days After Application, AMARE
[10] = Brassica napus, oilseed rape, canola (Brassica napus), read-out: Visual Growth Reduction (%) 14 Days After Application, BRSNN
[11] = Chenopodium album, lambsquarters (Chenopodium album), read-out: Visual Growth Reduction (%) 14 Days After Application, CHEAL
[12] = Euphorbia heterophylla, wild poinsettia (Euphorbia heterophylla), read-out: Visual Growth Reduction (%) 14 Days After Application, EPHHL
[13] = Helianthus annuus, sunflower (Helianthus annuus), read-out: Visual Growth Reduction (%) 14 Days After Application, HELAN
[14] = Setaria faberi, giant foxtail (Setaria faberi), read-out: Visual Growth Reduction (%) 14 Days After Application, SETFA

Row | melting point [°C] | Structure (SMILES) | pest or weed control at 35 g/ha [1, 3] [%] | pest or weed control at 70 g/ha [1, 3] [%] | pest or weed control at 140 g/ha [1, 3] [%] | pest or weed control at 35 g/ha [1, 4] [%] | pest or weed control at 70 g/ha [1, 4] [%] | pest or weed control at 140 g/ha [1, 4] [%] | pest or weed control at 35 g/ha [1, 5] [%] | pest or weed control at 70 g/ha [1, 5] [%] | pest or weed control at 140 g/ha [1, 5] [%] | pest or weed control at 35 g/ha [1, 6] [%] | pest or weed control at 70 g/ha [1, 6] [%] | pest or weed control at 140 g/ha [1, 6] [%] | pest or weed control at 35 g/ha [1, 7] [%] | pest or weed control at 70 g/ha [1, 7] [%] | pest or weed control at 140 g/ha [1, 7] [%] | pest or weed control at 35 g/ha [2, 8] [%] | pest or weed control at 70 g/ha [2, 8] [%] | pest or weed control at 140 g/ha [2, 8] [%] | pest or weed control at 35 g/ha [2, 9] [%] | also measured
1 | 158 to 159 | COC(=O)c1nc(-c2ccc(Cl)c3occc23)cc(N)c1Cl [Compound 2.19] | 0 to 29 | 0 to 29 | 0 to 29 | 0 to 29 | 0 to 29 | 0 to 29 | 0 to 29 | 0 to 29 | 0 to 29 | 0 to 29 | 0 to 29 | 0 to 29 | 0 to 29 | 0 to 29 | 0 to 29 | 95 to 100 | 95 to 100 | 95 to 100 | 95 to 100 | pest or weed control at 70 g/ha [2, 9]: 95 to 100%; pest or weed control at 140 g/ha [2, 9]: 95 to 100%; pest or weed control at 35 g/ha [2, 10]: 0 to 29%; pest or weed control at 70 g/ha [2, 10]: 60 to 74%; pest or weed control at 140 g/ha [2, 10]: 60 to 74%; pest or weed control at 35 g/ha [2, 11]: 95 to 100%; pest or weed control at 70 g/ha [2, 11]: 95 to 100%; pest or weed control at 140 g/ha [2, 11]: 95 to 100%; pest or weed control at 35 g/ha [2, 12]: 0 to 29%; pest or weed control at 70 g/ha [2, 12]: 0 to 29%; pest or weed control at 140 g/ha [2, 12]: 0 to 29%; pest or weed control at 35 g/ha [2, 13]: 0 to 29%; pest or weed control at 70 g/ha [2, 13]: 75 to 84%; pest or weed control at 140 g/ha [2, 13]: 75 to 84%
2 | 96 to 100 | COC(=O)c1nc(-c2cccc3cc[nH]c23)c(F)c(N)c1Cl [Compound 1.47] | 0 to 29 | 0 to 29 | 0 to 29 | 0 to 29 | 0 to 29 | 0 to 29 | 0 to 29 | 0 to 29 | 0 to 29 | 0 to 29 | 0 to 29 | 0 to 29 | 0 to 29 | 0 to 29 | 0 to 29 | 0 to 29 | 0 to 29 | 0 to 29 | 0 to 29 | pest or weed control at 35 g/ha [1, 14]: 0 to 29%; pest or weed control at 70 g/ha [1, 14]: 0 to 29%; pest or weed control at 140 g/ha [1, 14]: 0 to 29%; pest or weed control at 70 g/ha [2, 9]: 0 to 29%; pest or weed control at 140 g/ha [2, 9]: 30 to 44%; pest or weed control at 35 g/ha [2, 10]: 0 to 29%; pest or weed control at 70 g/ha [2, 10]: 0 to 29%; pest or weed control at 140 g/ha [2, 10]: 0 to 29%; pest or weed control at 35 g/ha [2, 11]: 75 to 84%; pest or weed control at 70 g/ha [2, 11]: 75 to 84%; pest or weed control at 140 g/ha [2, 11]: 85 to 94%; pest or weed control at 35 g/ha [2, 12]: 0 to 29%; pest or weed control at 70 g/ha [2, 12]: 0 to 29%; pest or weed control at 140 g/ha [2, 12]: 0 to 29%; pest or weed control at 35 g/ha [2, 13]: 0 to 29%; pest or weed control at 70 g/ha [2, 13]: 0 to 29%; pest or weed control at 140 g/ha [2, 13]: 45 to 59%
